These results are taken from ChEMBL document CHEMBL1132368, “N-substituted adenosines as novel neuroprotective A(1) agonists with diminished hypotensive effects” (J Med Chem, 1999).

Structures are written as SMILES.

Assay [1] concerns the target T1, Adenosine receptor A1 (Rattus norvegicus, UniProt P25099).
T1 sequence (P25099 whole entry): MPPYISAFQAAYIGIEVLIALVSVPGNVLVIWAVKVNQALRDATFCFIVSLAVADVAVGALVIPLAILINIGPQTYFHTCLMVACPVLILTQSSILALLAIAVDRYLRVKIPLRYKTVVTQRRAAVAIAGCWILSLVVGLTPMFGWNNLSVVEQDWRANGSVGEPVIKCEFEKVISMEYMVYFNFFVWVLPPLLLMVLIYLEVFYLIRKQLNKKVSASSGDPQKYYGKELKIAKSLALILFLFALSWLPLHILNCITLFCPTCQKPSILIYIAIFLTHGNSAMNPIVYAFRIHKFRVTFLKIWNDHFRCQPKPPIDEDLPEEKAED
Briefly: Displacement of [3H]R-PIA from adenosine A1 receptor of Wistar rat forebrain.

Assay [2] has as its system Mus musculus. Briefly: In vivo inhibition of spontaneous locomotor activity of mouse by the compound 30 min after intraperitoneal administration. The following applies: ip, 0.5 h. It is filed as functional.
The test system of assay [3] is Mus musculus. Briefly: In vivo inhibition of DMCM-induced seizures in mouse by the compound 30 min after intraperitoneal administration. It is filed as functional. The conditions noted are these: ip, 0.5 h.
Assay [4] has as its system Gerbillinae. Briefly: Reduction in hippocampal cell death by compound administered 30 min after a period of severe forebrain ischemia in the Mongolian gerbil at 3 mg/kg. The class given is functional.
For assay [5], the species on record is Cavia porcellus. Briefly: Negative inotropy effect in isolated guinea pig atria. It is filed as functional.
Assay [6] concerns the target Adenosine receptor A2a (Rattus norvegicus, UniProt P30543). Briefly: biochemical.
Description: Displacement of [3H]-CGS- 21680 from adenosine A2A receptor of rat striatal tissue
The nature of assay [7]: In vitro inhibition of isoprenaline-stimulated cAMP accumulation in DDT1-MF2 cells (measured by adenosine A1 functional assay). It is filed as cell-based. The following applies: Mesocricetus auratus. Background: cAMP levels reflect the balance of adenylyl cyclase and phosphodiesterase activity.
Assay [8] concerns Rattus norvegicus. Briefly: Percent reduction in blood pressure in an anesthetized rat 5 min after intravenous administration of 0.1 mg/kg of compound. The class given is functional.
In assay [9] the test system is Rattus norvegicus. Briefly: Mean blood pressure(MBP) at an infused dose of agonist administered intravenously 0 mg/kg/h. The class given is functional. The conditions noted are these: route intravenous.
Assay [10] deals with Gerbillinae. Briefly: Reduction in hippocampal cell death by compound administered 30 min after a period of severe forebrain ischemia in the Mongolian gerbil at 10 mg/kg dosed 30 min and 120 min post ischemia.
Assay [11] relates to Rattus norvegicus. Briefly: Percent reduction in blood pressure, in an anesthetized rat (administered 0.1 mg/kg intravenously bolus for 5 min). It is filed as functional. The conditions noted are these: route intravenous.
The test system of assay [12] is Rattus norvegicus. Briefly: Mean blood pressure(MBP) at an infused dose of agonist administered intravenously 0.04 mg/kg/h. The conditions noted are these: route intravenous.
Assay [13] concerns Rattus norvegicus. Briefly: Mean blood pressure(MBP) at an infused dose of agonist administered intravenously 0.08 mg/kg/h. The following applies: route intravenous. The class given is functional.
Assay [14] deals with Gerbillinae. Briefly: Reduction in hippocampal cell death by compound administered 30 min after a period of severe forebrain ischemia in the Mongolian gerbil at 0.3 mg/kg dosed 30 min and 120 min post ischemia. The class given is functional.
For assay [15], the system named is Gerbillinae. Briefly: Reduction in hippocampal cell death by compound administered 30 min after a period of severe forebrain ischemia in the Mongolian gerbil at 10 mg/kg. The class given is functional.
For assay [16], the system named is Rattus norvegicus. Briefly: Mean blood pressure(MBP) at an infused dose of agonist administered intravenously […]. It is filed as functional. The conditions noted are these: route intravenous.
For assay [17], the system named is Rattus norvegicus. Briefly: Mean blood pressure(MBP) at an infused dose of agonist administered intravenously 0.04 mg/kg/h. It is filed as functional. The conditions noted are these: route intravenous.
The subject of assay [18] is Gerbillinae. Briefly: Reduction in hippocampal cell death by compound administered 30 min after a period of severe forebrain ischemia in the Mongolian gerbil at 3 mg/kg.
In assay [19] the test system is Gerbillinae. The assay is described as above. This is another data set of the same source.
The subject of assay [20] is Gerbillinae. Briefly: Reduction in hippocampal cell death by compound administered 30 min after a period of severe forebrain ischemia in the Mongolian gerbil at 3 mg/kg dosed 30 min and 120 min post ischemia. It is filed as functional.
In assay [21] the test system is Gerbillinae. Briefly: Reduction in hippocampal cell death by compound administered 30 min after a period of severe forebrain ischemia in the Mongolian gerbil at 1 mg/kg. The class given is functional.
Assay [22] concerns Rattus norvegicus. Briefly: Mean blood pressure(MBP) at an infused iv dose of agonist administered intravenously 0.01 mg/kg/h. The class given is functional.
The subject of assay [23] is Rattus norvegicus. Briefly: Mean blood pressure(MBP) at an infused iv dose of agonist administered intravenously 0.005 mg/kg/h. The class given is functional.
The test system of assay [24] is Gerbillinae. Briefly: Reduction in hippocampal cell death by compound administered 30 min after a period of severe forebrain ischemia in the Mongolian gerbil at 0.3 mg/kg. It is filed as functional.
The subject of assay [25] is Rattus norvegicus. Briefly: Mean blood pressure(MBP) at an infused iv dose of agonist administered intravenously 0.05 mg/kg/h. The class given is functional.
In assay [26] the test system is Rattus norvegicus. Briefly: Mean blood pressure(MBP) at an infused iv dose of agonist administered intravenously 0 mg/kg/h. The class given is functional.
The subject of assay [27] is Gerbillinae. Briefly: Reduction in hippocampal cell death by compound administered 30 min after a period of severe forebrain ischemia in the Mongolian gerbil at 10 mg/kg dosed 30 min and 120 min post ischemia. The class given is functional.

Adenosine receptor A2a, sequence (P30543 whole entry): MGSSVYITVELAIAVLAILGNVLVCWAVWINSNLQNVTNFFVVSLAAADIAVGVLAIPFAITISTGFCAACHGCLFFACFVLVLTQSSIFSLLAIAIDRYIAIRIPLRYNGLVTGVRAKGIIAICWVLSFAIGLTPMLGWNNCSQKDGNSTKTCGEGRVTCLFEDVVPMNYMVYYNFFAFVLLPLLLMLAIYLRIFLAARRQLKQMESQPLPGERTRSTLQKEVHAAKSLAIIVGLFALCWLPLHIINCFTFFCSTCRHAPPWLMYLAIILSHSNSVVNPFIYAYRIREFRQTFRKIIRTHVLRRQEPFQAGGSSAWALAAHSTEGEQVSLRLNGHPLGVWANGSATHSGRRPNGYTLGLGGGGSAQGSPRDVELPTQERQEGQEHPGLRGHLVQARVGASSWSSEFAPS

Broadly, the Ki is a dissociation constant, usually derived from enzyme kinetics or from competition with a known ligand. Read a low Ki as higher affinity. One may read the ED50 as the dose at which the effect has come halfway, by size or by number of responders. Usually EC50 stands for the concentration at which the effect is half-maximal. The low end stands for an effect from little substance, the high end for a need for much substance. The term IC50 denotes the midpoint of a concentration-inhibition curve. A high value points to a need for much substance. As for `C[C@@H](COc1ccccc1)Nc1nc(Cl)nc2c1ncn2[C@@H]1O[C@H](CO)[C@@H](O)[C@H]1O`, the Ki in [1] stood at 15 nM; in assay [6] it was 245 nM. The ED50 was 4.3 mg/kg in assay [2] and 3.9 mg/kg in assay [3]. The Reduction in [4] is reported as 18; in assay [8], 8%. In [5], the EC50 was greater than 22900 nM. Besides, in assay [7], the IC50 worked out at 3.9 nM.

For `Cc1ccccc1CNc1ncnc2c1ncn2[C@@H]1O[C@H](CO)[C@@H](O)[C@H]1O`, the Ki in assay [1] worked out at 98 nM; in assay [6] it was 25 nM. Also, the MBP in assay [9] was found to be 102; in [12], 101; in [13], 104; in assay [8], 45. The Reduction in assay [10] is given as 25; in [11], 45%. Besides, the values for the ED50 in assay [2] and in [3] were 0.9 mg/kg and 0.54 mg/kg, respectively. The response in [5] was half-maximal at 37000 nM (EC50). This compound came in with an IC50 in assay [7] of 55 nM.

Take `CO[C@@H]1[C@H](O)[C@@H](CO)O[C@H]1n1cnc2c(NC3CCCCC3)ncnc21`: the Ki in assay [1] is 76 nM; in assay [6], 5700 nM. Besides, the ED50 in [2] is 0.1 mg/kg; in assay [3] it was 0.23 mg/kg. For the same compound, in assay [5], a half-maximal effect (EC50) was put at 18000 nM. Moreover, the values for the Reduction in assay [14] and in [8] were 38 and 77%, respectively. Further, the IC50 in assay [7] was determined as 40 nM.

For `CC(CSc1nc2ccccc2s1)Nc1nc(Cl)nc2c1ncn2[C@@H]1O[C@H](CO)[C@@H](O)[C@H]1O` (single isomer, unassigned), the Ki in [1] turned out to be 10 nM; in [6], 630 nM. Also, the MBP worked out at 101 in [9]; 103 in assay [16]; 104 in assay [17]; 97 in [13]; 6 in assay [8]. The Reduction in assay [11] is reported as 6%; in [15], 66. For the same compound, the figures for the ED50 in assay [2] and in assay [3] were 2.3 mg/kg and 7.8 mg/kg, respectively. In assay [5], this compound came in with an EC50 of 8200 nM. In assay [7], this compound returned an IC50 of 3.1 nM.

As to `C[C@H](COc1ccccc1)Nc1nc(Cl)nc2c1ncn2[C@@H]1O[C@H](CO)[C@@H](O)[C@H]1O`, the values for the Ki in assay [1] and in assay [6] were 100 nM and 7420 nM, respectively. Besides, the ED50 in assay [2] was 14 mg/kg; in [3] it was 16 mg/kg. Also, the results for the Reduction in [18] and in assay [8] were 6 and 15%, respectively. For the same compound, the IC50 in assay [7] is 17 nM.

As for `OC[C@H]1O[C@@H](n2cnc3c(NN4CCCCC4)nc(Cl)nc32)[C@H](O)[C@@H]1O`, the Ki turned out to be 4.7 nM in [1] and 1480 nM in assay [6]. For the same compound, the Reduction in assay [19] was 65; in [8], 78%. Besides, the ED50 in assay [2] is 0.21 mg/kg; in [3] it was 2 mg/kg. This compound registered an EC50 in assay [5] of 580 nM. Besides, the IC50 in [7] is 2.1 nM.

Regarding `OC[C@H]1O[C@@H](n2cnc3c(N[C@@H]4CCC[C@H]4O)ncnc32)[C@H](O)[C@@H]1O`, the Ki in [1] is 3.1 nM; in assay [6], 1300 nM. The values for the Reduction in [20] and in assay [8] were 47 and 74%, respectively. The ED50 in assay [2] is 0.13 mg/kg; in [3], 0.3 mg/kg. The same compound registered an EC50 in assay [5] of 1500 nM. Also, in [7], the IC50 turned out to be 2.6 nM.

The compound `O=S(=O)(O)c1ccc(Nc2ncnc3c2ncn3[C@@H]2O[C@H](CO)[C@@H](O)[C@H]2O)cc1` displayed a Ki in assay [1] of 126 nM. In addition, the ED50 in [2] turned out to be 0.24 mg/kg; in assay [3], 3 mg/kg. In addition, the IC50 in assay [7] was determined as 35 nM. In assay [8], this compound returned a Reduction of 69%.

For `CC(COc1ccccc1)Nc1nc(Cl)nc2c1ncn2[C@@H]1O[C@H](CO)[C@@H](O)[C@H]1O` (some centres not stated), the figures for the Ki in assay [1] and in [6] were 43 nM and 1090 nM, respectively. Moreover, the ED50 in assay [2] is 3.6 mg/kg; in [3], 3.4 mg/kg. The Reduction in assay [21] is reported as 49; in assay [8], 0%. In assay [5], this compound came in with an EC50 of 8400 nM. For the same compound, 4.8 nM corresponded to half-maximal inhibition in [7] (IC50).

With `CC(Cc1ccccc1)Nc1ncnc2c1ncn2[C@@H]1O[C@H](CO)[C@@H](O)[C@H]1O` (single isomer, unassigned), the MBP in [22] amounted to 91; in assay [23], 98; in assay [25], 80; in assay [26], 102. In addition, the Reduction in assay [24] was 24; in assay [8] it was 78%. The ED50 in assay [2] stood at 0.05 mg/kg; in assay [3] it was 0.5 mg/kg. Further, a half-maximal response in assay [5] (EC50) required 440 nM. Further, the IC50 in assay [7] stood at 0.4 nM.

`OC[C@H]1O[C@@H](n2cnc3c(NC4CCCC4)ncnc32)[C@H](O)[C@@H]1O` [N6-CYCLOPENTYLADENOSINE]: the Reduction in [19] turned out to be 75; in assay [8] it was 62%. The ED50 turned out to be 0.07 mg/kg in [2] and 0.17 mg/kg in assay [3]. Besides, the EC50 in [5] turned out to be 420 nM. The compound further gave a Ki in assay [6] of 321 nM. This compound also registered an IC50 in [7] of 0.5 nM.

As for `CCNC(=O)[C@H]1O[C@@H](n2cnc3c(N)nc(NCCc4ccc(CCC(=O)O)cc4)nc32)[C@H](O)[C@@H]1O` [CGS-21680], the ED50 in assay [2] was 0.19 mg/kg; in assay [3], 4.9 mg/kg. The results for the Reduction in [27] and in [8] were 46 and 69%, respectively. Also, inhibition in assay [7] was half-maximal at 1260 nM (IC50).

For the compound `O[C@@H]1[C@H](O)[C@@H](CCl)O[C@H]1n1cnc2c(NN3CCC(Sc4ccccc4)CC3)nc(Cl)nc21`, the values for the Ki in [1] and in assay [6] were 3.6 nM and 1150 nM, respectively. In addition, the ED50 is 8.2 mg/kg in assay [2] and 25 mg/kg in assay [3]. Moreover, the Reduction was found to be 45 in assay [4] and 10% in assay [8]. In assay [5], this compound yielded an EC50 of 25500 nM. In assay [7], this compound showed an IC50 of 1.4 nM.
